Tests used:
Assay type in all cases: in vivo, mouse
WT Swiss mice [1] = assay: Toxicity / safety profile of GLP1 conjugates in WT Swiss mice
Description: All animal experiments were performed under an MIT institute approved IACUC protocol following federal, state, and local guidelines for the care and use of animals (protocol number #0821-058-24). The studies were performed on 30-35 g (5-8 weeks-old) healthy female Swiss mice, purchased from The Jackson Laboratory (MA, USA). Mice were housed with free access to food and water ad libitum unless stated otherwise for the need of the experiment. […] Intraperitoneal injections (IP) were performed on vigil mice, in the lower right abdominal quadrant. For blood collection, mice were either punctured in the heart (terminal procedure), or gently pressed at the tail following tail pricks (vigil). […] The animals were sacrificed by CO2 inhalation followed by cervical dislocation. All compounds injected in mice were either USP grade, sterile, or filtered using 0.22 μm.
(§1) Six hours before the Ip-GTT, the mice were fasted by removing the food, the enrichment, and by placing them in a new cage to avoid coprophagy. Access to water was, however kept free and ad libitum for the entire experiment. Five minutes before the Ip-GTT, basal glycemia was measured by taking a small drop of blood using tail pricks.
In the other cohorts, 2a,3a was SC administered following either 10 mg/kg (25 nmol), 30 mg/kg (75 nmol), or three injections of 10 mg/kg, 1 per week for 3 weeks (30 mg/kg total, 75 nmol total).
(§2) All animal experiments were performed under an MIT institute approved IACUC protocol following federal, state, and local guidelines for the care and use of animals (protocol number #0821-058-24). The studies were performed either on 35-45 g (12-16 weeks-old) wild-type female Swiss mice, 25-30 g (14-20 weeks-old) male and female C57BL/6J mice, or 55-70 g (16 weeks-old) male and female obese Lep^ob/ob mice, all purchased from The Jackson Laboratory (MA, USA). Mice were housed with free access to normal food diet and water ad libitum unless stated otherwise for the need of the experiment. […] Intraperitoneal injections (IP) were performed on non-anesthetized mice, in the lower right abdominal quadrant. Blood collection for the ELISA assays and biodistributions was performed as a terminal procedure by heart puncture immediately after the sacrifice. For Ip-GTT and Ip-ITT mice were restrained and gently pressed at the tail following tail pricks. The animals were sacrificed by CO2 inhalation followed by cervical dislocation. All compounds injected in mice were either USP grade, sterile, or filtered using 0.22 μm.

Lep^ob/ob mice = assay: Safety profile of GLP-1a conjugates in Lep^ob/ob mice; details: 10 mg/kg; for Number of mice showing significant aggressiveness / Number of mice with Piloerection, Moderate: cohort of 3 mice
Description: In Lep^ob/ob obese mice, two routes were assessed for the 10 mg/kg dose: SC and IP (Table 21). […] Investigations about the PD of 2a,3a following SC injection of 10 mg/kg were pursued in both mice models.
as §2

WT Swiss mice [2] = assay: Intraperitoneal glucose tolerance test (Ip-GTT) in WT Swiss mice; details: Ip-GTT after injection
Description: as §1

## CC[C@H](C)[C@H](NC(=O)[C@H](Cc1ccccc1)NC(=O)[C@H](CCC(=O)O)NC(=O)[C@H](CCCCNC(=O)COCCOCCNC(=O)COCCOCCNC(=O)CC[C@H](NC(=O)CCCCCCCCCCCCCCCCC(=O)O)C(=O)O)NC(=O)[C@H](C)NC(=O)[C@H](C)NC(=O)[C@H](CCC(N)=O)NC(=O)CNC(=O)[C@H](CCC(=O)O)NC(=O)[C@H](CC(C)C)NC(=O)[C@H](Cc1ccc(O)cc1)NC(=O)[C@H](CO)NC(=O)[C@H](CO)NC(=O)[C@@H](NC(=O)[C@H](CC(=O)O)NC(=O)[C@H](CO)NC(=O)[C@@H](NC(=O)[C@H](Cc1ccccc1)NC(=O)[C@@H](NC(=O)CNC(=O)[C@H](CCC(=O)O)NC(=O)C(C)(C)NC(=O)[C@@H](N)Cc1cnc[nH]1)[C@@H](C)O)[C@@H](C)O)C(C)C)C(=O)N[C@@H](C)C(=O)N[C@@H](Cc1c[nH]c2ccccc12)C(=O)N[C@@H](CC(C)C)C(=O)N[C@H](C(=O)N[C@@H](CCCNC(=N)N)C(=O)NCC(=O)N[C@@H](CCCNC(=N)N)C(=O)NCC(=O)O)C(C)C [Semaglutide]
WT Swiss mice [1]; SC 0.5 mg/kg, cohort of 5 mice
  Number of mice with Aggressiveness: 0
  Number of mice with Piloerection Mild: 0
  Number of mice with Piloerection Severe: 0
  Number of mice with Piloerection, Moderate: 0
WT Swiss mice [1]; SC 3 mg/kg, cohort of 5 mice
  Number of mice with Piloerection Mild: 0
WT Swiss mice [1]; SC 10 mg/kg, cohort of 15 mice
  Number of mice with Piloerection Mild: 0
WT Swiss mice [1]; SC 10 mg/kg, cohort of 15 mice, time per cell footnote (¤ over 48 h)
  Number of mice with Piloerection, Moderate: 0
Lep^ob/ob mice; Lep^ob/ob obese mice
  Tolerability, both routes (SC and IP): significantly impact the mice behavior and induce hypoglycemia
Lep^ob/ob mice; female Lep^ob/ob mice, IP
  Mean fasting blood glucose: 104 ± 6 mg/dL
  Number of mice showing significant aggressiveness: 3
Lep^ob/ob mice; female Lep^ob/ob mice, SC
  Mean fasting blood glucose: 97 ± 7 mg/dL
  Number of mice showing significant aggressiveness: 3
  Number of mice with Piloerection, Moderate: 3
Lep^ob/ob mice; male Lep^ob/ob mice, IP
  Mean fasting blood glucose: 111 ± 14 mg/dL
  Number of mice showing significant aggressiveness: 3
Lep^ob/ob mice; male Lep^ob/ob mice, SC
  Mean fasting blood glucose: 75 ± 12 mg/dL
  Number of mice showing significant aggressiveness: 3
  Number of mice with Piloerection, Moderate: 3
WT Swiss mice [2]
  Hypoglycemia: induce hypoglycemia
